molecular target: mAChR M1 (Homo sapiens, UniProt P11229); assay: In vitro cellular calcium flux assay, positive allosteric modulation of mAChR M1; assay type: cell-based; conditions: BHK cells expressing mAChR M1; EC20 carbachol; Examples 76-80 and 82-89 slightly modified procedure
Procedure: Baby hamster kidney cells stably expressing human or rat mAChR M1 to M5 were utilised for primary and selectivity profiling activities. mAChR M2 and M4 cell lines also stably expressed the chimeric Gαqi5 G-protein.
Human mAChR M1, M3, M5 and rat M1 cells were grown in low glucose Dulbecco's Modified Eagle's Medium (DMEM) medium plus heat inactivated 10% fetal bovine serum (HI FBS) and 500 μg/ml hygromycin B^1. Human mAChR M2 and M4 cells were maintained as above with^2 the addition of 500 μg/ml G418 to the media. Cells were maintained in culture at 37° C./5% CO2 and passaged twice weekly by treatment with 0.05% Trypsin/EDTA detachment solution, centrifugation (200 g, 5 min) and re-suspension in fresh media. Following cell expansion, cells were cryopreserved at −80° C. by treatment with 0.05% Trypsin/EDTA detachment solution, centrifugation (200 g, 5 min) and re-suspension of the pellet in freezing media (90% HI FBS/10% DMSO^3) at 15E6 cells/ml^4.
Prior to assaying, cells were prepared by thawing at 37° C. in a water bath, centrifugation (200 g, 5 min) and re-suspension of the pellet in fresh media. 15000 cells per well were seeded in black, clear bottomed 384-well Greiner Bio-One plates in plating medium (DMEM/10% HI FBS) and incubated overnight at 37 C/5% CO2.
On the day of the assay, media was removed from each well and replaced with 50 μl^5 assay buffer (HBSS with 20 mM HEPES and 2.5 mM Probenecid) containing the calcium indicator, Calcium 4 (Molecular Devices). Cells were then incubated at 37° C./5% CO2 for 30 min and at room temperature.
Compound preparation was carried out by generation of 11-point, 1 in 3 serial dilution concentration response curves in 100% DMSO. Compound was then diluted 1 in 65^6 with assay buffer (HBSS with 20 mM HEPES and 2.5 mM Probenecid) prior to the addition of 10 ul^7 to the cells using a Tetra fluorometric imaging plate reader (Molecular Devices)^8. Compound driven increases in intracellular calcium flux was measured as an increase in fluorescence (494Ex, 516Em)^9.
Positive allosteric modulator pEC50 values and antagonist pIC50 values for each compound were then determined. […] The points of modification and the alternate reagents, concentrations or equipment employed in these examples were: ^1200 μg/ml hygromycin B; ^2G418 not added; ^3CELLBANKER 1; ^410E6; ^5 40 μl; ^6 1 in 99; ^7 20 μl; ^8FDSS6000 (Hamamatsu Photonics); ^9(480Ex, 540Em); ^10Spotfire (TIBCO).

mAChR M1, sequence (P11229 whole entry, looked up): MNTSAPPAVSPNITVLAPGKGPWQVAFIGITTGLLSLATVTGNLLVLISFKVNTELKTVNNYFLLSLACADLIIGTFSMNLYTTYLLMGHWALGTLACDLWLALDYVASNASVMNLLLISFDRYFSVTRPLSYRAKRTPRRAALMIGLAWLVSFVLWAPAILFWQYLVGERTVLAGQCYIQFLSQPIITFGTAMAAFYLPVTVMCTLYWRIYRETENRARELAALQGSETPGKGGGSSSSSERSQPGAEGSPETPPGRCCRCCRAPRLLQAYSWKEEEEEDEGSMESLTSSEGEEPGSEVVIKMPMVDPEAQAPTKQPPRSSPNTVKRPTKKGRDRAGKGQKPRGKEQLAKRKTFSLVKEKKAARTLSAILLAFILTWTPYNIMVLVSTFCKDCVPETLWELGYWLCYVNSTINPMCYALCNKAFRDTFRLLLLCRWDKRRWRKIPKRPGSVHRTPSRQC

Row | Compound | pEC50 for positive allosteric modulation
1 | O=C(N[C@@H]1CCOC[C@H]1O)c1cn(Cc2ccc(F)cc2)c2c(Cl)ccnc12 [Example 89, 7-Chloro-1-(4-fluorobenzyl)-N-((3S,4R)-3-hydroxytetrahydro-2H-pyran-4-yl)-1H-pyrrolo[3,2-b]pyridine-3-carboxamide] | 6.6
2 | COc1ccc(Cn2cc(C(=O)N[C@H]3CCCC[C@@H]3O)c3nccc(C)c32)cn1 [Example 67, N-((1S,2S)-2-Hydroxycyclohexyl)-1-((6-methoxypyridin-3-yl)methyl)-7-methyl-1H-pyrrolo[3,2-b]pyridine-3-carboxamide] | 7.5
3 | O=C(N[C@H]1CCCC[C@@H]1O)c1cn(Cc2cccc(F)c2)c2cccnc12 [Example 4, 1-(3-Fluorobenzyl)-N-((1S,2S)-2-hydroxycyclohexyl)-1H-pyrrolo[3,2-b]pyridine-3-carboxamide] | 6.8
4 | COc1cccc(Cn2cc(C(=O)N[C@H]3CCCC[C@@H]3O)c3ncccc32)c1F [Example 102, 1-(2-fluoro-3-methoxybenzyl)-N-((1S,2S)-2-hydroxycyclohexyl)-1H-pyrrolo[3,2-b]pyridine-3-carboxamide] | 6.4
5 | Cc1cccc(Cn2cc(C(=O)N[C@H]3CCCC[C@@H]3O)c3ncccc32)c1 [Example 96, N-((1S,2S)-2-hydroxycyclohexyl)-1-(3-methylbenzyl)-1H-pyrrolo[3,2-b]pyridine-3-carboxamide] | 6.7
6 | O=C(N[C@H]1CCCC[C@@H]1O)c1cn(Cc2ccncc2)c2cccnc12 [Example 77, N-((1S,2S)-2-Hydroxycyclohexyl)-1-(pyridin-4-ylmethyl)-1H-pyrrolo[3,2-b]pyridine-3-carboxamide] | 6.3
7 | Cn1ccnc1-c1ccc(Cn2cc(C(=O)N[C@H]3CCCC[C@@H]3O)c3ncccc32)cc1 [Example 42, N-((1S,2S)-2-Hydroxycyclohexyl)-1-(4-(1-methyl-1H-imidazol-2-yl)benzyl)-1H-pyrrolo[3,2-b]pyridine-3-carboxamide] | 7.0
8 | COc1ccc(Cn2cc(C(=O)N[C@H]3CCCC[C@@H]3O)c3ncccc32)cc1 [Example 93, N-((1S,2S)-2-hydroxycyclohexyl)-1-(4-methoxybenzyl)-1H-pyrrolo[3,2-b]pyridine-3-carboxamide] | 6.9
9 | COc1ccc(Cn2cc(C(=O)N[C@H]3CCCC[C@@H]3O)c3nccc(Cl)c32)cn1 [Example 68, 7-Chloro-N-((1S,2S)-2-hydroxycyclohexyl)-1-((6-methoxypyridin-3-yl)methyl)-1H-pyrrolo[3,2-b]pyridine-3-carboxamide] | 7.7
10 | O=C(N[C@H]1CCCC[C@@H]1O)c1cn(Cc2ccncc2)c2c(Cl)ccnc12 [Example 79, 7-Chloro-N-((1S,2S)-2-hydroxycyclohexyl)-1-(pyridin-4-ylmethyl)-1H-pyrrolo[3,2-b]pyridine-3-carboxamide] | 7.4
11 | Cc1ccc(Cn2cc(C(=O)N[C@H]3CCCC[C@@H]3O)c3nccc(C)c32)cc1 [Example 63, N-((1S,2S)-2-Hydroxycyclohexyl)-7-methyl-1-(4-methylbenzyl)-1H-pyrrolo[3,2-b]pyridine-3-carboxamide] | 7.6
12 | Cc1ccnc2c(C(=O)N[C@H]3CCCC[C@@H]3O)cn(Cc3ccc(Cl)cn3)c12 [Example 81, 1-((5-Chloropyridin-2-yl)methyl)-N-((1S,2S)-2-hydroxycyclohexyl)-7-methyl-1H-pyrrolo[3,2-b]pyridine-3-carboxamide] | 7.2
13 | Cc1ccc2c(n1)c(C(=O)N[C@H]1CCCC[C@@H]1O)cn2Cc1ccc(-n2cccn2)cc1 [Example 40, 1-(4-(1H-Pyrazol-1-yl)benzyl)-N-((1S,2S)-2-hydroxycyclohexyl)-5-methyl-1H-pyrrolo[3,2-b]pyridine-3-carboxamide] | 6.5
14 | Cc1cccc(-c2ccc(Cn3cc(C(=O)N[C@H]4CCCC[C@@H]4O)c4ncccc43)c(F)c2)n1 [Example 44, 1-(2-Fluoro-4-(6-methylpyridin-2-yl)benzyl)-N-((1S,2S)-2-hydroxycyclohexyl)-1H-pyrrolo[3,2-b]pyridine-3-carboxamide] | 6.9
15 | Cc1ccc(Cn2cc(C(=O)N[C@H]3CCCC[C@@H]3O)c3nccc(Cl)c32)cn1 [Example 62, 7-Chloro-N-((1S,2S)-2-hydroxycyclohexyl)-1-((6-methylpyridin-3-yl)methyl)-1H-pyrrolo[3,2-b]pyridine-3-carboxamide] | 7.4
16 | Cc1ccnc(Cn2cc(C(=O)N[C@H]3CCCC[C@@H]3O)c3nccc(Cl)c32)c1 [Example 80, 7-Chloro-N-((1S,2S)-2-hydroxycyclohexyl)-1-((4-methylpyridin-2-yl)methyl)-1H-pyrrolo[3,2-b]pyridine-3-carboxamide] | 7.1
17 | COc1ccnc2c(C(=O)N[C@H]3CCCC[C@@H]3O)cn(Cc3ccc(F)cc3)c12 [Example 37, 1-(4-Fluorobenzyl)-N-((1S,2S)-2-hydroxycyclohexyl)-7-methoxy-1H-pyrrolo[3,2-b]pyridine-3-carboxamide] | 6.7
18 | N#Cc1ccnc2c(C(=O)N[C@H]3CCCC[C@@H]3O)cn(Cc3ccc(F)cc3)c12 [Example 32, 7-Cyano-1-(4-fluorobenzyl)-N-((1S,2S)-2-hydroxycyclohexyl)-1H-pyrrolo[3,2-b]pyridine-3-carboxamide] | 6.7
19 | O=C(N[C@H]1CCCC[C@@H]1O)c1cn(Cc2ccc(Br)cc2)c2cccnc12 [Example 56, 1-(4-Bromobenzyl)-N-((1S,2S)-2-hydroxycyclohexyl)-1H-pyrrolo[3,2-b]pyridine-3-carboxamide] | 6.5
20 | O=C(NC1(CO)CCCC1)c1cn(Cc2ccc(F)cc2)c2cccnc12 [Example 21, 1-(4-Fluorobenzyl)-N-(1-(hydroxymethyl)cyclopentyl)-1H-pyrrolo[3,2-b]pyridine-3-carboxamide] | 5.7
21 | COc1ccc(Cn2cc(C(=O)N[C@H]3CCCC[C@@H]3O)c3nccc(OC)c32)cc1 [Example 105, N-((1S,2S)-2-hydroxycyclohexyl)-7-methoxy-1-(4-methoxybenzyl)-1H-pyrrolo[3,2-b]pyridine-3-carboxamide] | 6.7
22 | O=C(N[C@H]1CCCC[C@@H]1O)c1cn(Cc2ccc(F)cc2)c2ccc(Cl)nc12 [Example 39, 5-Chloro-1-(4-fluorobenzyl)-N-((1S,2S)-2-hydroxycyclohexyl)-1H-pyrrolo[3,2-b]pyridine-3-carboxamide] | 6.0
23 | O=C(N[C@H]1CCOC[C@@H]1O)c1cn(Cc2ccc(F)cc2)c2c(Cl)ccnc12 [Example 88, 7-Chloro-1-(4-fluorobenzyl)-N-((3R,4S)-3-hydroxytetrahydro-2H-pyran-4-yl)-1H-pyrrolo[3,2-b]pyridine-3-carboxamide] | 6.4
24 | Cc1ccnc2c(C(=O)N[C@H]3CCCC[C@@H]3O)cn(Cc3cccc(F)c3)c12 [Example 65, 1-(3-Fluorobenzyl)-N-((1S,2S)-2-hydroxycyclohexyl)-7-methyl-1H-pyrrolo[3,2-b]pyridine-3-carboxamide] | 7.7
25 | O=C(NC1CCNCC1)c1cn(Cc2ccc(F)cc2)c2cccnc12 [Example 30, 1-(4-Fluorobenzyl)-N-(piperidin-4-yl)-1H-pyrrolo[3,2-b]pyridine-3-carboxamide] | 6.5
26 | Cc1cc(Cn2cc(C(=O)N[C@H]3CCCC[C@@H]3O)c3nccc(Cl)c32)ccn1 [Example 78, 7-Chloro-N-((1S,2S)-2-hydroxycyclohexyl)-1-((2-methylpyridin-4-yl)methyl)-1H-pyrrolo[3,2-b]pyridine-3-carboxamide] | 7.8
27 | O=C(NC1CCCCC1)c1cn(Cc2ccc(-n3cccn3)cc2)c2cccnc12 [Example 50, 1-(4-(1H-Pyrazol-1-yl)benzyl)-N-cyclohexyl-1H-pyrrolo[3,2-b]pyridine-3-carboxamide] | 6.4

same assay, conditions: BHK cells expressing mAChR M1; EC20 carbachol; Examples 76-80 and 82-89 slightly modified procedure; read-out: pEC50 for positive allosteric modulation (converted)

Row | Compound | EC50 [µM]
28 | N#Cc1ccc2c(n1)c(C(=O)N[C@H]1CCCC[C@@H]1O)cn2Cc1ccc(-n2cccn2)cc1 [Example 41, 1-(4-(1H-Pyrazol-1-yl)benzyl)-5-cyano-N-((1S,2S)-2-hydroxycyclohexyl)-1H-pyrrolo[3,2-b]pyridine-3-carboxamide] | 0.316
